# In the OPERA property sets (Mansouri et al. 2018):
SMILES,log10 Koc (L/kg),log10 vapour pressure (mmHg),melting point [°C],boiling point [°C],ready biodegradability,log10 Henry constant (atm·m³/mol)
c1ccc2[nH]c(-c3cscn3)nc2c1,3.24,-8.4,300,–,–,–
CC(C)c1ccc(Br)cc1,–,–,-22.5,219,–,–
C=C(C)C(=O)OC,–,1.59,-48,100,readily biodegradable,–
CCCCCCCCCCCCC=O,–,–,14,–,–,–
CC(=O)C1(O)CCCCC1,–,–,–,126,–,–
Clc1ccc2c(Cl)ccnc2c1,–,–,93,–,–,–
CCc1cc(CC)c(CC)c(CC)c1CC,–,–,–,277,–,–
CCC(=O)O[C@H]1CC[C@H]2[C@@H]3CC[C@H]4CC(=O)[C@H](C)C[C@]4(C)[C@H]3CC[C@]12C,–,–,128,–,–,–
Cc1ccc(Br)cc1C,–,–,-0.2,214,–,–
CC(=O)Nc1ncc([N+](=O)[O-])s1,–,–,264,–,–,–
CO[C@H]1O[C@H](CNC(=O)N(CCCl)N=O)[C@@H](O)[C@H](O)[C@H]1O,–,–,111,–,–,–
CCCCO[N+](=O)[O-],–,0.919,–,133,–,-2.81
CCC(=O)c1cccc(C)c1,–,–,–,235,–,–
OC(CNc1ccccn1)c1ccccc1 (stereo not drawn),–,–,83.5,–,–,–
COc1ccc(Cl)cc1Cl,–,–,28.5,232,–,–
CC12CCC(CC1)C2(C)C,–,–,158,161,–,–
O=C(F)C(F)(F)F,–,–,–,-59,–,-3.48
COC(=O)c1ccc(Br)cc1,–,–,81,–,–,–
C=CC(C)CCCC (stereo not drawn),–,–,–,111,–,–
C#CCCCCCCC,–,0.797,-50,151,–,–

SMILES,log10 Koc (L/kg),log10 vapour pressure (mmHg),melting point [°C],boiling point [°C],ready biodegradability,log10 Henry constant (atm·m³/mol)
NC1=NCCS1,–,–,85.3,–,–,–
O[C@H](CS)[C@H](O)CS,–,–,62.8,–,–,–
CCCC(C)=C(C)C,–,1.26,-115,122,–,–
CC(Cl)=CCl,–,1.96,–,–,–,–
CCOS(=O)(=O)c1ccc(C)cc1,–,–,34.5,–,–,–
CCCCOc1ccc(CC(=O)NO)cc1,–,–,154,–,–,–
C1CCC(C2CCCCC2)CC1,–,-0.967,4,238,–,–
COc1c(Br)cc(Br)cc1Br,–,–,88,298,–,–
C=CC(=O)NC(C)(C)CC(C)=O,–,–,57.5,–,–,–
ClC(Cl)(Cl)I,–,–,-7.8,142,–,–
Cn1cc(-c2ccccc2)c(=O)c(-c2cccc(C(F)(F)F)c2)c1,2.85,-7.01,154,–,not readily biodegradable,–
COP(=S)(OC)Oc1c(Cl)cc(C)cc1Cl,3.7,-3.37,79,–,–,–
CC(C)c1cc(C(C)C)c(C(C)C)cc1C(C)C,–,-2.7,118,259,–,–
c1cc[n+]2c(c1)-c1cccc[n+]1CC2,2.7,-8,–,–,–,–
CNc1cccc(C)c1,–,–,–,206,not readily biodegradable,–
NC(=O)CCCCC1CCSS1 (stereo not drawn),–,–,128,–,–,–
CC1(C)O[C@@H]2C[C@H]3[C@@H]4CCC5=CC(=O)C=C[C@]5(C)[C@H]4[C@@H](O)C[C@]3(C)[C@]2(C(=O)CO)O1,–,–,274,–,–,–
CCC(O)(CC)C(C)C,–,–,–,160,–,–
CC(C)C(OC(=O)c1cccnc1)c1ccc(Cl)cc1 (stereo not drawn),–,–,61,–,–,–
CN(CCO)CCO,–,-3.7,-21,247,not readily biodegradable,–

SMILES,log10 Koc (L/kg),log10 vapour pressure (mmHg),melting point [°C],boiling point [°C],ready biodegradability,log10 Henry constant (atm·m³/mol)
O=C(C(Br)Br)C(Br)(Br)Br,–,–,79.5,–,–,–
Clc1cc2c(cc1Cl)Oc1cc(Br)c(Br)cc1O2,–,-8.33,316,–,–,–
COC(=O)[C@]12OC[C@]34[C@H]([C@@H](O)[C@@H]1O)[C@@]1(C)CC(=O)C(O)=C(C)[C@@H]1C[C@H]3OC(=O)[C@H](OC(=O)/C=C(\C)C(C)C)[C@@H]24,–,–,226,–,–,–
CCC(=O)OC(C)CC (stereo not drawn),–,–,–,133,–,–
O=C=Nc1ccc(-c2ccccc2)cc1,–,–,56,283,–,–
COc1ccccc1OCC(O)COC(N)=O (stereo not drawn),–,–,93,–,not readily biodegradable,–
CCC1(C)CCCCC1,–,–,–,152,–,–
Oc1ccccc1N=Nc1ccccc1O,–,–,173,–,–,–
O=c1ccc2cc3ccoc3cc2o1,–,–,164,–,–,–
CCCCN(CCCC)C(=O)COC(=O)c1ccccc1,–,–,25,–,–,–
CC1=CC(=O)CC(C)(C)C1,1.4,-0.358,-8.1,215,readily biodegradable,–
CCCCCCCCCCCCCCCCCCCCCCCCCCCCCCCCCCCCCC,–,–,–,512,readily biodegradable,–
CC1CC(=O)CC(C)(C)C1 (stereo not drawn),–,–,–,189,not readily biodegradable,–
COC(=O)[C@H]1[C@H]2C[C@@H]3c4[nH]c5cc(OC)ccc5c4CCN3C[C@H]2C[C@@H](OC(=O)c2cc(OC)c(OC)c(OC)c2)[C@@H]1OC,–,–,264,–,–,–
Clc1cc(-c2cc(Cl)c(Cl)c(Cl)c2Cl)c(Cl)c(Cl)c1Cl,6.41,–,–,–,–,-5
C=CCc1ccccc1C,–,–,–,182,–,–
C=CCBr,–,–,-119,70.1,–,–
CCC(C)NC(C)CC (stereo not drawn),–,–,–,135,not readily biodegradable,–
O=C1/C(=C2\Nc3c(Br)cc(Br)cc3C2=O)Nc2c(Br)cc(Br)cc21,–,-11.1,–,–,–,–
